From US9334267B2, “RAF inhibitor compounds” (Deciphera Pharmaceuticals, LLC, priority 2012, dated 2016)
Read-outs that look alike come from different tables or passages of the source.

Legend:
[1] = system: A375res cells; assay: Proliferation assay in vemurafenib-resistant melanoma cells A375res; details: 72 hour proliferation assay
[2] = system: phospho-ERK in HCT-116 cells; assay: HCT-116 cell pERK assay (AlphaScreen SureFire); type: cell-based; details: B-Raf wild type, K-Ras mutation
Experimental: Examples of Formula I are tested against HCT-116 cells harboring wild type B-Raf and K-Ras mutation. The phospho-ERK activities are evaluated as described below.
HCT-116 cells (catalog #CCL-247) are obtained from the American Type Culture Collection (ATCC, Manassas, Va.). Briefly, cells are grown in McCoy's 5A supplemented with 10% characterized fetal bovine serum (Invitrogen, Carlsbad, Calif.), and 1% Penicillin/Streptomycin/L-Glutamine at 37 degrees Celsius, 5% CO2, and 95% humidity. Cells are allowed to expand until reaching 75-90% confluency at which point they are subcultured or harvested for assay use. HCT-116 cells suspended in complete media are added to 384-well tissue culture treated plates (3×10^5 cells/mL; 7,500 cells per well). The cells are incubated overnight at 37 degrees Celsius, 5% CO2, and 95% humidity. Next, test compound or DMSO diluted in complete media is added to the wells (0.25% final DMSO concentration). The plates are then incubated for 4 hours at 37 degrees Celsius, 5% CO2, and 95% humidity. Following compound incubation, the cells are lysed at 4° C. for 20 minutes with shaking. Cell lysates are centrifuged and the supernatant is transferred to a new plate. An aliquot of each lysate is transferred to a white 384-well assay plate. Using the AlphaScreen SureFire pERK kit (Perkin-Elmer, Waltham, Mass.), an acceptor bead mixture is added to each well and incubated for 2 h at room temperature in the dark. A donor bead mixture is then added to each well and incubated for 2 h at room temperature in the dark. Plates are read using a Synergy2 plate reader (Biotek, Winooski, Vt.) in Plate Mode with Timing Control. Read: (F)1: excitation: 680/30 nm, emission: Plug. 2: Excitation: Plug, emission: 570/100 nm. Top mirror 635 nm. Data is analyzed using Prism software (Graphpad, San Diego, Calif.) to calculate IC50 values and Excel software (Microsoft, Redmond, Wash.) to calculate stimulation compared to control.

[3] = system: A375res cells

| IC50 shift A375 to A375res [3] | Structure (SMILES) | IC50 shift A375 to A375res [1] | concentrations at which the pERK signal is stimulated [2] |
| --- | --- | --- | --- |
| – | CCCS(=O)(=O)Nc1ccc(F)c(C(=O)c2c[nH]c3ncc(Cl)cc23)c1F [PLX4720, reference compound] | more than 27 fold | – |
| more than 57 fold | CCCS(=O)(=O)Nc1ccc(F)c(C(=O)c2c[nH]c3ncc(-c4ccc(Cl)cc4)cc23)c1F [vemurafenib, reference compound] | – | up to 3 uM |
